Test results from patent publication US9725416B2, “Ethynyl derivatives” (Hoffmann-La Roche Inc., priority 2014, dated 2017).

Key:
rats = details: cited from earlier work
mice [1] = details: reported by Addex 2010; cited from earlier work
mice [2] = details: reported by Addex 2010; cited from earlier work; remark: listed apart in the source
mice treated with MPTP = details: cited from earlier work
[3] = system: 6-OHDA rodent model of PD; details: cited from earlier work
human mGlu4 receptor = target: T1, human mGlu4 receptor (Homo sapiens, UniProt Q14833); experiment: Ca2+ mobilization in vitro assay on recombinant human mGlu4 expressed in HEK293 cells (mGlu4 PAM); assay type: cell-based; details: for Emax: HEK293, maximal response in % of the maximal stimulatory effect obtained with saturating concentrations of L-AP4, read-out: Eff. (%); for EC50: HEK-293 cells, Ca2+ mobilization, L-AP4 added at EC20
T1 construct: expressed in transfected cells; host or cells: HEK-293 (monoclonal, stably transfected)
Summary of the method: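 HEK293 line stably expressing human mGlu4 (low expression, low constitutive activity), Fluo-4AM loaded; compounds (11 half-log dilutions) preincubated 10-30 min at 37 °C, then L-AP4 added at its EC20, determined daily. EC50 from peak fluorescence minus basal, normalized to saturating L-AP4 maximum, four-parameter fit.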

T1 sequence (Q14833 33-912): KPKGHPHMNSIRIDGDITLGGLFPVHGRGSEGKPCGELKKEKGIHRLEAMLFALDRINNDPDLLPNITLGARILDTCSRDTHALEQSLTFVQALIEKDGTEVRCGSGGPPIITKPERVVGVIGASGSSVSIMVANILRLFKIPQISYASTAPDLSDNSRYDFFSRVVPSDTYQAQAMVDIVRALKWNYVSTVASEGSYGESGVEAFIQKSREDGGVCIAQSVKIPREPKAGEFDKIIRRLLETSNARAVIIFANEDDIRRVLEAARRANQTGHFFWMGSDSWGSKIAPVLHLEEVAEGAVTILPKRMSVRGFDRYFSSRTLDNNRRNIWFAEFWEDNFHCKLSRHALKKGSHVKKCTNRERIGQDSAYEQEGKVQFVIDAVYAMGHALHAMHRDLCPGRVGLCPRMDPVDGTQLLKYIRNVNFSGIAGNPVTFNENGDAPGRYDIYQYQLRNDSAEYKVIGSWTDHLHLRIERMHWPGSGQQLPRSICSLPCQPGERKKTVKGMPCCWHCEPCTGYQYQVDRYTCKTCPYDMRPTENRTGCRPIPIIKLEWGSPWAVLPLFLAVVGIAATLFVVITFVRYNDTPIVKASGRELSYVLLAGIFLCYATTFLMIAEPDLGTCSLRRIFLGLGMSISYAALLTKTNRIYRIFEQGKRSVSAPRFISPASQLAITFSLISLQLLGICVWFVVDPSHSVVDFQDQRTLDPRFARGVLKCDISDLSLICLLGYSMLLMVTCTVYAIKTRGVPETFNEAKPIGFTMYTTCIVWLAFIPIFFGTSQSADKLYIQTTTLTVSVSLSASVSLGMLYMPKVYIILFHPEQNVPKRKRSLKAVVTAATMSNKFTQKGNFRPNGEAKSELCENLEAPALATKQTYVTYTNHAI

| SMILES | Emax (human mGlu4 receptor) [%] | EC50 (human mGlu4 receptor) [nM] | further results |
| --- | --- | --- | --- |
| Cc1ccnc(Nc2nc(-c3cn[nH]c3)c(C)s2)n1 [ADX88178] | – | – | profile in rat EPM test (rats; rat, after oral dosing): anxiolytic-like profile; activity in EPM (rats; rats, reported by Addex 2010): active; activity in EPM (mice [1]): active; activity in marble burying test (mice [2]): active |
| O=C(Nc1ccccc1)C12CC1/C(=N\O)c1ccccc1O2 (single isomer, unassigned; (-)) [(−)-PHCCC] | – | – | nigrostriatal degeneration (mice treated with MPTP): reduced nigrostriatal degeneration |
| N[C@@H](CCP(=O)(O)O)C(=O)O [L-AP4, (2S)-2-amino-4-phosphonobutanoic acid] | – | – | neuroprotection [3]: neuroprotective effects |
| CN1C(=O)N(c2c(F)cc(C#Cc3ccccc3)cc2F)C(=O)C2CCCC21C (stereo in doubt) [Example 14, (4aRS,7aRS)-3-[2,6-Difluoro-4-(2-phenylethynyl)phenyl]-1,7a-dimethyl-4a,5,6,7-tetrahydrocyclopenta[d]pyrimidine-2,4-dione] | 119 | 125 | – |
| CN1C(=O)N(c2c(F)cc(C#Cc3ccccc3)cc2F)C(=O)C[C@@]1(C)c1cncnc1 [Example 56, (6S)-3-[2,6-Difluoro-4-(2-phenylethynyl)phenyl]-1,6-dimethyl-6-pyrimidin-5-yl-hexahydropyrimidine-2,4-dione] | 99 | 79 | – |
| CN1C(=O)N(c2c(F)cc(C#Cc3cccnc3)cc2F)C(=O)CC1(C)c1ccccc1 (racemic) [Example 15, (6RS)-3-[2,6-Difluoro-4-[2-(3-pyridyl)ethynyl]phenyl]-1,6-dimethyl-6-phenyl-hexahydropyrimidine-2,4-dione] | 134 | 100 | – |
| CN1C(=O)N(c2c(F)cc(C#Cc3ccccc3)cc2F)C(=O)CC1(C)c1ccccn1 (racemic) [Example 27, (6RS)-3-[2,6-Difluoro-4-(2-phenylethynyl)phenyl]-1,6-dimethyl-6-(2-pyridyl)hexahydropyrimidine-2,4-dione] | 99 | 72 | – |
| CN1C(=O)N(c2c(F)cc(C#Cc3ccccc3)cc2F)C(=O)C[C@@]1(C)c1cc[nH]c(=O)c1 [Example 74, (6S)-3-[2,6-Difluoro-4-(2-phenylethynyl)phenyl]-1,6-dimethyl-6-(2-oxo-1H-pyridin-4-yl)hexahydropyrimidine-2,4-dione] | 116 | 42 | – |
| CN1C(=O)N(c2c(F)cc(C#Cc3cccnc3)cc2F)C(=O)CC1(C)c1ccccc1Cl (racemic) [Example 40, (6RS)-6-(2-Chlorophenyl)-3-[2,6-difluoro-4-[2-(3-pyridyl)ethynyl]phenyl]-1,6-dimethyl-hexahydropyrimidine-2,4-dione] | 109 | 394 | – |
| CC12CC(=O)N(c3c(F)cc(C#Cc4ccccc4)cc3Cl)C(=O)N1CCNC2=O (racemic) [Example 86, (9aRS)-7-[2-Chloro-6-fluoro-4-(2-phenylethynyl)phenyl]-9a-methyl-2,3,4,9-tetrahydropyrazino[1,2-c]pyrimidine-1,6,8-trione] | 100 | 108 | – |
| CCN1C(=O)N(c2c(F)cc(C#Cc3ccccc3)cc2F)C(=O)C[C@@]1(C)c1cccnc1 [Example 52, (6S)-3-[2,6-Difluoro-4-(2-phenylethynyl)phenyl]-1-ethyl-6-methyl-6-(3-pyridyl)hexahydropyrimidine-2,4-dione] | 99 | 48 | – |
| CN1C(=O)N(c2c(F)cc(C#Cc3cccnc3)cc2F)C(=O)CC1(C)c1ccccc1 (stereo in doubt) [Example 19, (6S)-3-[2,6-Difluoro-4-[2-(3-pyridyl)ethynyl]phenyl]-1,6-dimethyl-6-phenyl-hexahydropyrimidine-2,4-dione] | 178 | 50 | – |
| CN1C(=O)N(c2c(F)cc(C#Cc3cccnc3)cc2Cl)C(=O)CC1(C)c1cccnc1 (racemic) [Example 33, (6RS)-3-[2-Chloro-6-fluoro-4-[2-(3-pyridyl)ethynyl]phenyl]-1,6-dimethyl-6-(3-pyridyl)hexahydropyrimidine-2,4-dione] | 142 | 171 | – |
| CN1C(=O)N(c2c(F)cc(C#Cc3cccnc3)cc2F)C(=O)CC1(C)c1ccc(Cl)cc1 (racemic) [Example 41, (6RS)-6-(4-Chlorophenyl)-3-[2,6-difluoro-4-[2-(3-pyridyl)ethynyl]phenyl]-1,6-dimethyl-hexahydropyrimidine-2,4-dione] | 115 | 229 | – |
